Measured values from patent US10335392B2, “Cyclic compounds useful as modulators of TNF α” (BRISTOL-MYERS SQUIBB COMPANY, priority 2015, dated 2019).

Target: TNFα (Homo sapiens (Human), UniProt P01375)
Assay: TNF induced HEK-Blue assay
Type: cell-based
Conditions: TNFα 0.5 ng/ml; HEK-Blue-CD40L cells, NF-kB-driven secreted alkaline phosphatase reporter; 18 h
Protocol: TNF or CD40L-Induced HEK-Blue Assay
Test compounds serially diluted in DMSO were plated in an assay plate (LABCYTE, Cat. # LP-0200) at final concentrations ranging from 0.004 μM to 25 μM. TNFα (final concentration 0.5 ng/ml) or CD40L (final concentration 30 ng/ml) in assay buffer [DMEM, 4.5 g/l glucose (Gibco, Cat. 21063-029), 10% FBS (Sigma, F4135), 1% Penicillin-Streptomycin (Gibco, Cat. 15140-122), 1% Anti-Anti (Gibco, Cat. 15240-112) and 2 mM L-glutamine (Gibco, Cat. 25030-081)] was then added to the assay plate. After a 30 minute pre-incubation at 37° C. and 5% CO2, HEK-Blue™-CD40L cells (INVIVOGEN, Cat. Code hkb-cd40) containing a NF-kB-driven secreted alkaline phosphatase reporter gene were seeded into the assay plate at a density of 20,000 cells per well. This plate was then incubated for 18 h at 37° C. and 5% CO2. Secreted alkaline phosphatase expression was measured using QUANTI-Blue™ (INVIVOGEN, Cat. Code rep-qb1) according to manufacturer's specifications and the assay plate was read on a PerkinElmer Envision at 620 nm.
Inhibition data for the test compound over a range of concentrations was plotted as percentage inhibition of the test compound (100%=maximum inhibition). IC50 values were determined after correcting for background [(sample read−mean of low control)/(mean of high control−mean of low control)] where by the low control is DMSO without stimulation and high control is DMSO with stimulation. The IC50 is defined as the concentration of test compound which produces 50% inhibition and was quantified using the 4 parameter logistic equation to fit the data.

TNFα, sequence (P01375 77-233): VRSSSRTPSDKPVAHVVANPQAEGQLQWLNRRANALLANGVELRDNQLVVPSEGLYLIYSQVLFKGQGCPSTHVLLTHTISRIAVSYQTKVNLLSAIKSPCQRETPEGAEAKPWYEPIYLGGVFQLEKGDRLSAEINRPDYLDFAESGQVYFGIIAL

Row | SMILES | IC50
1 | CC(C)(O)c1ncc(-c2cc3c(cc2F)nc2n3[C@@H](c3ccccc3OC(F)F)[C@H]3C[C@@H]23)cn1 (racemic) [Example 1, rac-2-(5-((1aR,8R,8aS)-8-(2-(difluoromethoxy)phenyl)-4-fluoro-1,1a,8,8a-tetrahydrobenzo[d]cyclopropa[3,4]pyrrolo[1,2-a]imidazol-5-yl)pyrimidin-2-yl) propan-2-ol] | < 1 µM
2 | CC(C)(O)c1ncc(-c2cc3c(cc2F)nc2n3[C@@H](c3ccccc3Oc3ccccc3)[C@@H]3C[C@H]23)cn1 (racemic) [Example 23, rac-2-(5-((1aR,8S,8aS)-4-fluoro-8-(2-phenoxyphenyl)-1,1a,8,8a-tetrahydrobenzo[d]cyclopropa[3,4]pyrrolo[1,2-a]imidazol-5-yl)pyrimidin-2-yl)propan-2-ol] | 1 to 10 µM
3 | CC(C)(O)c1ncc(-c2cc3c(cc2F)nc2n3[C@@H](c3ccccc3Oc3ccccc3)[C@H]3C[C@@H]23)cn1 (racemic) [Example 24, rac-2-(5-((1aR,8R,8aS)-4-fluoro-8-(2-phenoxyphenyl)-1,1a,8,8a-tetrahydrobenzo[d]cyclopropa[3,4]pyrrolo[1,2-a]imidazol-5-yl)pyrimidin-2-yl)propan-2-ol] | 1 to 10 µM
4 | CC(C)(O)c1ncc(-c2cc3c(cc2F)nc2n3[C@@H](c3ccccc3OCc3ccccc3)[C@@H]3C[C@H]23)cn1 (racemic) [Example 25, rac-2-(5-((1aR,8S,8aS)-8-(2-(benzyloxy)phenyl)-4-fluoro-1,1a,8,8a-tetrahydrobenzo[d]cyclopropa[3,4]pyrrolo[1,2-a]imidazol-5-yl)pyrimidin-2-yl)propan-2-ol] | 1 to 10 µM
5 | CC(C)(O)c1ncc(-c2cc3c(cc2F)nc2n3[C@@H](c3ccccc3OCc3ccccc3)[C@H]3C[C@@H]23)cn1 (racemic) [Example 26, rac-2-(5-((1aR,8R,8aS)-8-(2-(benzyloxy)phenyl)-4-fluoro-1,1a,8,8a-tetrahydrobenzo[d]cyclopropa[3,4]pyrrolo[1,2-a]imidazol-5-yl)pyrimidin-2-yl)propan-2-ol] | 10 to 25 µM
6 | COc1ccc(-c2ccc3nc4n(c3c2)[C@@H](c2ccccc2)[C@H]2CNC[C@@H]42)cn1 (racemic) [Example 36, rac-(3aR,10S,10aS)-7-(6-methoxypyridin-3-yl)-10-phenyl-1,2,3,3a,10,10a-hexahydrobenzo[d]pyrrolo[3′,4′:3,4]pyrrolo[1,2-a]imidazole] | 10 to 25 µM
7 | COc1ccc(-c2ccc3nc4n(c3c2)[C@@H](c2ccccc2)[C@H]2CN(C(=O)NC(C)(C)C)C[C@@H]42)cn1 (racemic) [Example 37, rac-(3aR,10S,10aS)—N-(tert-butyl)-7-(6-methoxypyridin-3-yl)-10-phenyl-3,3a,10,10a-tetrahydrobenzo[d]pyrrolo[3′,4′:3,4]pyrrolo[1,2-a]imidazole-2(1H)-carboxamide] | 1 to 10 µM
8 | COc1ccc(-c2ccc3nc4n(c3c2)[C@@H](c2ccccc2)[C@H]2CN(C(C)=O)C[C@@H]42)cn1 (racemic) [Example 38, rac-1-((3aR,10S,10aS)-7-(6-methoxypyridin-3-yl)-10-phenyl-3,3a,10,10a-tetrahydrobenzo[d]pyrrolo[3′,4′:3,4]pyrrolo[1,2-a]imidazol-2(1H)-yl)ethan-1-one] | 10 to 25 µM
9 | CCNC(=O)N1C[C@H]2[C@@H](C1)c1nc3ccc(-c4ccc(OC)nc4)cc3n1[C@H]2c1ccccc1 (racemic) [Example 39, rac-(3aR,10S,10aS)—N-ethyl-7-(6-methoxypyridin-3-yl)-10-phenyl-3,3a,10,10a-tetrahydrobenzo[d]pyrrolo[3′,4′:3,4]pyrrolo[1,2-a]imidazole-2(1H)-carboxamide] | 1 to 10 µM
10 | COc1ccc(-c2ccc3nc4n(c3c2)[C@@H](c2ccccc2)[C@H]2CN(C(=O)OC(C)(C)C)C[C@@H]42)cn1 (racemic) [Example 40, rac-tert-butyl (3aR,10S,10aS)-7-(6-methoxypyridin-3-yl)-10-phenyl-3,3a,10,10a-tetrahydrobenzo[d]pyrrolo[3′,4′:3,4]pyrrolo[1,2-a]imidazole-2(1H)-carboxylate] | 10 to 25 µM
11 | COc1ccc(-c2ccc3nc4n(c3c2)[C@@H](c2ccccc2)[C@H]2CN(C(=O)c3ccccc3)C[C@@H]42)cn1 (racemic) [Example 41, rac-((3aR,10S,10aS)-7-(6-methoxypyridin-3-yl)-10-phenyl-3,3a,10,10a-tetrahydrobenzo[d]pyrrolo[3′,4′:3,4]pyrrolo[1,2-a]imidazol-2(1H)-yl)(phenyl)methanone] | 10 to 25 µM
12 | COc1ccc(-c2ccc3nc4n(c3c2)[C@@H](c2ccccc2)[C@H]2CC=CC[C@@H]42)cn1 (racemic) [Example 42, rac-(4aR,11R,11aS)-8-(6-methoxypyridin-3-yl)-1-phenyl-4,4a,11,11a-tetrahydro-1H-benzo[4,5]imidazo[2,1-a]isoindole] | 10 to 25 µM
13 | CNC(=O)c1ccc(-c2ccc3nc4n(c3c2)[C@@H](c2cc(C)ccc2C)[C@H]2[C@H](c3ccccc3)[C@@H]42)cn1 (racemic) [Example 43, rac-5-((1R,1aS,8S,8aR)-8-(2,5-dimethylphenyl)-1-phenyl-1,1a,8,8a-tetrahydrobenzo[d]cyclopropa[3,4]pyrrolo[1,2-a]imidazol-5-yl)-N-methylpicolinamide] | 10 to 25 µM
14 | O=C(O)CN1CCN(c2ncc(-c3cc4c(cc3F)nc3n4[C@@H](c4ccccc4OC(F)F)[C@H]4C[C@@H]34)cn2)CC1 [Example 4, 2-(4-(5-((1aR,8R,8aS)-8-(2-(difluoromethoxy)phenyl)-4-fluoro-1,1a,8,8a-tetrahydrobenzo[d]cyclopropa[3,4]pyrrolo[1,2-a]imidazol-5-yl)pyrimidin-2-yl)piperazin-1-yl)acetic acid] | < 1 µM
15 | Fc1cc2nc3n(c2cc1-c1cnc(N2CCOCC2)nc1)[C@@H](c1ccccc1OC(F)F)[C@H]1C[C@@H]31 [Example 6, 4-(5-((1aR,8R,8aS)-8-(2-(difluoromethoxy)phenyl)-4-fluoro-1,1a,8,8a-tetrahydrobenzo[d]cyclopropa[3,4]pyrrolo[1,2-a]imidazol-5-yl)pyrimidin-2-yl)morpholine] | < 1 µM

Now from value to molecule:

Row | IC50 | SMILES
16 | 10 to 25 µM | Fc1cc2nc3n(c2cc1Br)[C@@H](c1ccccc1OC(F)F)[C@@H]1C[C@H]31 (racemic) [Example 11, rac-(1aR,8S,8aS)-5-bromo-8-(2-(difluoromethoxy)phenyl)-4-fluoro-1,1a,8,8a-tetrahydrobenzo[d]cyclopropa[3,4]pyrrolo[1,2-a]imidazole]
17 | < 1 µM | CC(C)(O)c1ncc(-c2cc3c(cc2F)nc2n3[C@@H](c3ccccc3OC(F)F)[C@@H]3C[C@H]23)cn1 (racemic) [Example 20, rac-2-(5-((1aR,8S,8aS)-8-(2-(difluoromethoxy)phenyl)-4-fluoro-1,1a,8,8a-tetrahydrobenzo[d]cyclopropa[3,4]pyrrolo[1,2-a]imidazol-5-yl)pyrimidin-2-yl)propan-2-ol]
18 | < 1 µM | CC(C)(O)c1ncc(-c2cc3c(cc2F)nc2n3[C@H](c3ccccc3OC(F)F)[C@H]3C[C@@H]23)cn1 (stereo in doubt) [Example 21, 2-(5-((1aR,8S,8aS)-8-(2-(difluoromethoxy)phenyl)-4-fluoro-1,1a,8,8a-tetrahydrobenzo[d]cyclopropa[3,4]pyrrolo[1,2-a]imidazol-5-yl)pyrimidin-2-yl)propan-2-ol]
19 | < 1 µM | CC(C)(O)c1ncc(-c2cc3c(cc2F)nc2n3[C@@H](c3ccccc3OC(F)F)[C@H]3C[C@@H]23)cn1 [Example 2, 2-(5-((1aR,8R,8aS)-8-(2-(difluoromethoxy)phenyl)-4-fluoro-1,1a,8,8a-tetrahydrobenzo[d]cyclopropa[3,4]pyrrolo[1,2-a]imidazol-5-yl)pyrimidin-2-yl)propan-2-ol]
20 | < 1 µM | CC(C)(O)c1ncc(-c2cc3c(cc2F)nc2n3[C@H](c3ccccc3OC(F)F)[C@@H]3C[C@H]23)cn1 [Example 3, 2-(5-((1aS,8S,8aR)-8-(2-(difluoromethoxy)phenyl)-4-fluoro-1,1a,8,8a-tetrahydrobenzo[d]cyclopropa[3,4]pyrrolo[1,2-a]imidazol-5-yl)pyrimidin-2-yl)propan-2-ol]
21 | < 1 µM | NS(=O)(=O)c1ccc(-c2cc3c(cc2F)nc2n3[C@@H](c3ccccc3OC(F)F)[C@H]3C[C@@H]23)cc1 [Example 5, 4-((1aR,8R,8aS)-8-(2-(difluoromethoxy)phenyl)-4-fluoro-1,1a,8,8a-tetrahydrobenzo[d]cyclopropa[3,4]pyrrolo[1,2-a]imidazol-5-yl)benzenesulfonamide]
22 | < 1 µM | NC(=O)c1ccc(-c2cc3c(cc2F)nc2n3[C@@H](c3ccccc3OC(F)F)[C@H]3C[C@@H]23)cn1 [Example 7, 5-((1aR,8R,8aS)-8-(2-(difluoromethoxy)phenyl)-4-fluoro-1,1a,8,8a-tetrahydrobenzo[d]cyclopropa[3,4]pyrrolo[1,2-a]imidazol-5-yl)picolinamide]
